Results reported in publication PMC8708940, “Crossing of the Cystic Barriers of Toxoplasma gondii by the Fluorescent Coumarin Tetra-Cyclopeptide” (Molecules, 2021).

Tests used:
[1] = system: T. gondii RH strain tachyzoite; format: cell-based, Toxoplasma gondii; details: intracellular growth of RH strain tachyzoite in HFF
From the text: The parasite strains used in this study are the following: the T. gondii type I RH strain that has lost the ability to complete cyst conversion, the T. gondii type II Prugniaud (Pru) strain that is capable of robust bradyzoite differentiation, the T. gondii type II Pru-Δhxgprt-A7 strain that expresses green fluorescent protein (GFP), the Pru-Δku80 strain [36, 37], and the RH Tg hdac3 T99A strain (previously obtained in our laboratory).
(§1) All T. gondii strains were maintained by serial passage in an HFF (Human Foreskin Fibroblasts) monolayer under tachyzoite growth conditions in Dulbecco’s modified Eagle medium (DMEM; Invitrogen) supplemented with 10% (vol/vol) fetal bovine serum (FBS; Invitrogen), 4 mM glutamine, 500 U/mL penicillin, 250 µg/mL streptomycin at 37 °C and 25 mM Hepes buffer (Invitrogen) in 5% CO2.

human cells HFF = format: cell-based; details: human foreskin fibroblasts
Description: as §1

[2] = system: Ex vivo T. gondii cysts (PRU strain); assay: Cyst and bradyzoite penetration observed by fluorescence microscopy; format: cell-based, Toxoplasma gondii; details: 37 °C, exposure time 100 ms
From the text: To focus on the ability of the cyclic tetrapeptide moiety to transport compounds through the cyst wall, we began our investigation by monitoring the transport of the poorly cell-permeable fluorochrome 3 (Figure 2) by optical microscopy.
To ensure that the fluorescent compound was incorporated to the parasite cell, bradyzoites were released from treated cysts (Figure 3b).
Cysts were isolated from the brains of mice chronically infected with the Pru-Δhxgprt-A7 or the Pru strains for at least 6 weeks, either using the Percoll gradient method as described previously or directly harvesting the cysts using a 10-μL pipet for the dye experimentation in order to prevent deterioration of the cyst wall for the permeability studies.
Images were acquired with a Axioplan 2 fluorescence microscope (Carl Zeiss Microimaging, Thornwood, NY, USA) and processed with the ZEN software (Zeiss).

Structure (SMILES) | EC50 [1] [µM] | EC50 (human cells HFF) [µM] | Fluorescence of isolated cysts (penetration and accumulation in the cyst) ([2]; 200 nM to 3.7 µM, 3, 22 and 96 h) | Labeling of bradyzoites released from treated cysts ([2]; 3.7 µM for 3 h, bradyzoites released from the cyst) | Fluorescent labeling of isolated cysts (cyst penetration) ([2]; isolated ex vivo cysts, 1 µM, 24 h, PBS washing)
CCN(CC)c1ccc2cc(-n3cc(C[C@]4(C)NC(=O)[C@H](CCCCCC(=O)[C@@H](C)O)NC(=O)[C@H]5CCCN5C(=O)[C@H](Cc5ccccc5)NC4=O)nn3)c(=O)oc2c1 [compound 1] | 0.043 ± 0.0022 | 0.28 ± 0.02 | increasing fluorescence was observed | clearly show labeling of these bradyzoites | 
C=CCC[C@@H]1NC(=O)[C@H]2CCCN2C(=O)[C@H](Cc2ccccc2)NC(=O)[C@](C)(Cc2cn(-c3cc4ccc(N(CC)CC)cc4oc3=O)nn2)NC1=O [compound 2] |  |  |  |  | labeled them with a high intensity
